This is an account of results in patent US9452196B2, “Pharmaceutical composition for treating medical conditions and a method for treating alimentary disorders and related diseases” (SOCIEDADE BENEFICENTE DE SENHORAS HOSPITAL SIRIO LIBANES, priority 2009, dated 2016).

Assay type in all cases: in vivo, rat
One experiment deals with male Wistar rats. Kind of experiment: fat content and body weight in male Wistar rats on 63-day diet. The conditions noted are these: once a day for three days.
For another experiment, the system named is diet induced obese rats. The experiment is described as follows: insulin sensitivity in diet induced obese rats. The conditions noted are these: 50 micrograms/Kg and 1 mg/Kg hemopressin, FIG. 6.
The test system of the next experiment is rats. Kind of experiment: body weight and fat content after oral administration.
The next experiment relates to male Zucker rats. Kind of experiment: fat content in male Zucker rats after intraperitoneal administration. The following applies: intraperitoneal 50 micrograms/Kg once a day for three days. As to the method:
Experiments were also conducted on genetically obese and diet-induced rats of another species. Male Zucker rats were maintained on a 12 hour light/dark cycle. The rats were divided into two groups that receive once a day for three days either intraperiotoneal administration of 50 micrograms/Kg body weight of HPW2 or saline.

As to PVNFKWLSH [HPW2], in the experiment with male Wistar rats (63-day ad libitum diet), the “Body Weight (% of Control)” value is 95.47 ± 15.44 % of Control, the “Periepididymal Adipose Tissue Weight” value was determined as 4.01 ± 0.33 g, the “Retroperitoneal Adipose Tissue Weight” value is 5.37 ± 1.11 g and the “Visceral Adipose Tissue Weight” value stood at 2.63 ± 0.94 g. Moreover, in the experiment with male Wistar rats, the “periepididymal and visceral fat content compared to saline control” value is “significantly reduced periepididymal and visceral fat content”. The insulin sensitivity entry in the experiment with diet induced obese rats is “significantly improved insulin sensitivity”. Moreover, in the experiment on rats, the “total body weight and periepididymal fat content” value is reported as “significantly reduce”. Further, in the experiment on rats (rats), the “Body Weight (% of Control)” value is 96.71 ± 2.03 % of Control, the “Periepididymal Adipose Tissue Weight” value is on record as 7.32 ± 1.22 g, the “Retroperitoneal Adipose Tissue Weight” value was found to be 7.19 ± 1.50 g and the “Visceral Adipose Tissue Weight” value came out at 4.28 ± 0.59 g. For the same sequence, the retroperitoneal fat content entry in the experiment on male Zucker rats is given as “significant reduction in retroperitoneal fat content”.
